Measured values from the supplement of paper PMC10307832.

Columns and labels:
Assay in all cases: relative viability (nuclei count vs DMSO), 5 days (fraction); higher = more cells survive
[1] = compound: CC1CC(=O)N(C2=CN=C(N=C2N1C3CCCC3)NC4=C(C=C(C=C4)C(=O)NC5CCN(CC5)C)OC)C [NPK76-II-72-1] + CCNC(=O)c1noc(-c2cc(C(C)C)c(O)cc2O)c1-c1ccc(CN2CCOCC2)cc1 [Luminespib] (partner 0.01 µM)
Procedure, shortened: (§1)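 Dosing by pin tool came one day after lung cancer cell lines were seeded in 1536-well plates, using either one drug or a fixed anchor-drug dose plus five library-drug doses (not always all listed) in √10 steps. After 5 days, nuclei were counted on 4× images. Relative viability is treated-well nuclei count divided by vehicle-well nuclei count, and values are medians of duplicate plates.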

[2] = compound: CC[C@@H]1C(=O)N(C)c2cnc(Nc3ccc(C(=O)NC4CCN(C)CC4)cc3OC)nc2N1C1CCCC1 [BI-2536] + C[C@@H](Oc1cc(-c2cnn(C3CCNCC3)c2)cnc1N)c1c(Cl)ccc(F)c1Cl [Crizotinib] (partner 1 µM)
Procedure, shortened: as §1

[3] = compound: CC1CC(=O)N(C2=CN=C(N=C2N1C3CCCC3)NC4=C(C=C(C=C4)C(=O)NC5CCN(CC5)C)OC)C [NPK76-II-72-1] + CC(C)C[C@H](NC(=O)[C@H](Cc1ccccc1)NC(=O)c1cnccn1)B(O)O [Bortezomib] (partner 0.002 µM)
Procedure, shortened: as §1

[4] = compound: CC1CC(=O)N(C2=CN=C(N=C2N1C3CCCC3)NC4=C(C=C(C=C4)C(=O)NC5CCN(CC5)C)OC)C [NPK76-II-72-1] + O=C(c1cc(Cc2n[nH]c(=O)c3ccccc23)ccc1F)N1CCN(C(=O)C2CC2)CC1 [Olaparib] (partner 8 µM)
Procedure, shortened: as §1

Cell Line: UMC-11
- relative viability ([1]; first compound 0.01 µM): 0.997
- relative viability ([1]; first compound 0.03162 µM): 1
- relative viability ([1]; first compound 0.1 µM): 0.934
- relative viability ([1]; first compound 1 µM): 0.988
- relative viability ([2]; first compound 0.01 µM): 0.48
- relative viability ([2]; first compound 0.03162 µM): 0.237
- relative viability ([2]; first compound 0.1 µM): 0.148
- relative viability ([2]; first compound 0.3162 µM): 0.133
- relative viability ([2]; first compound 1 µM): 0.1
- relative viability ([3]; first compound 0.01 µM): 0.743
- relative viability ([3]; first compound 0.03162 µM): 0.605
- relative viability ([3]; first compound 0.1 µM): 0.773
- relative viability ([3]; first compound 0.3162 µM): 0.659
- relative viability ([3]; first compound 1 µM): 0.788
- relative viability ([4]; first compound 0.01 µM): 0.381
- relative viability ([4]; first compound 0.03162 µM): 0.339
- relative viability ([4]; first compound 0.1 µM): 0.386
- relative viability ([4]; first compound 0.3162 µM): 0.358
- relative viability ([4]; first compound 1 µM): 0.403
